# Experimental data published in patent US6884777B1, “Method for treating respiratory distress syndrome” (The Nemours Foundation, priority 2000, dated 2005).
# Columns and labels:
# pregnant rats = assay: Antenatal treatment of pregnant rats: weight of maternal and fetal lungs; assay type: in vivo, rat; conditions: delivery at d18; for Weight fetal lung (g)/g fetus / Average weight fetal lungs: antenatal treatment 48 h; for Average weight fetal lungs: n = 9; for increase of average fetal lung weight in relation to body weight: i.p. at d16 of gestation and 24 h later, leptin 1 mg/kg, dexamethasone 6 mg/kg, vs control
# Experimental: Leptin (1 mg/kg body weight) was administered to pregnant rats at d16 of gestation and 24 h later by intraperitoneal injection. Dexamethasone at 6 mg per kg body weight was administered at similar time intervals as leptin. In addition, the effect of a combination of leptin and dexamethasone treatment was tested. After 48 h of leptin, dexamethasone or leptin/dexamethasone exposure, premature delivery of the rat pups was induced at d18, which is similar to 30 weeks of gestation in the human. The fetuses from each litter were pooled and weighed, and various tissues from both the rat fetuses and mothers were also dissected and weighed. […] Antenatal treatment with dexamethasone increased fetal lung weight by 41%.
# type II alveolar cells = assay: Histologic analysis of fetal lung after antenatal treatment (alkaline phosphatase staining); assay type: in vivo, rat; conditions: antenatal treatment for 48 h, alkaline phosphatase staining (FIG. 6)
# Experimental: FIG. 6 depicts the effect of antenatal treatment with leptin or dexamethasone on fetal lung morphology. Fetal lung sections were stained with a histochemical stain for alkaline phosphatase, which identifies type II cells. Control, no leptin; dexamethasone (6 mg/ml for 48 h); leptin (0.25 mg/ml for 48 h).
# Histologic analysis of the lung tissue was done to determine the basis for the increased fetal lung weight. Type II cells were identified by alkaline phosphatase staining as previously described (Post and Smith, Am. Rev. Respir. Dis. 137: 525-30, 1988). Unfixed frozen 5 μm sections of fetal lung tissue were stained histochemically with alkaline phosphatase at pH 8.74 to identify type II alveolar cells. Slides were incubated for 60 minutes at 37° C. in 25 ml of 0.2M Tris-HCl buffer and 25 ml of deionized water, 5 mg of Naphthol AS-BI phosphate, 0.1 ml dimethylformamide, and 30 mg of fast red TR. The slides were then rinsed in 3 changes of deionized water, counterstained for 30 seconds in Harris hematoxylin and blued in running water for 3-5 minutes. Slides were mounted from water in Advantage™.
# [1] = tested on: isolated type II alveolar cells; assay: RT-PCR of surfactant and GAPDH mRNA in cultured isolated fetal type II alveolar cells; assay type: cell-based, rat; conditions: 1 ng/ml leptin, 24 h, d19 type II cells
# Experimental: FIG. 5 depicts RT-PCR analysis of surfactant and GADPH (glyceraldehyde phosphate dehydrogenase) mRNA expression in cultured isolated type II alveolar cells. Cells were exposed to either 1 ng/ml leptin (1 L) or 10 ng/ml leptin (10 L). Control cells were not exposed to leptin.
# To determine if the leptin effect on surfactant production was due to a direct effect of leptin on the type II alveolar cell, we determined whether the effects of leptin could be reproduced in isolated type II alveolar cells in culture. Alveolar type II cells were obtained from the lungs of 19-d gestation fetal rats by the method described by Bhandari et al., (Pediatr. Res. 41:166-71, 1997). In brief, lungs of 19-day gestation fetal rats were removed, dissected free of connective tissue and nonparenchymal pulmonary tissue, and cultured as explants for 40-48 h in serum free Waymouth MB 752/1 medium with penicillin and streptomycin in humidified 95% O2/5% CO2 at 37° C. […] The explant cells were then harvested and the cells dissociated using a solution of collagenase, trypsin and DNase. The mixed cell suspension was subjected to three differential adhesions to remove fibroblasts. The non-adherent suspension containing an enriched population of fetal type II cells was plated at 2×10^6 cells/35 mm dish in 2 ml of minimum essential medium containing penicillin (100 U/ml), kanamycin ([…]) and 2% fetal bovine serum. The cells were cultured for 20-22 h at 37° C. in […] (Bhandari et al., Pediatr. Res. 41:166-71, 1997). Cultures contain 90-95% type II cells of which >99% are viable as determined by exclusion of the vital dye, trypan blue. The usual yield of type II cells from the lungs of the fetuses (10-16) per pregnant rat is approximately 10^7 cells.
# Type II cells from d19 fetal lungs were cultured for 24 h and then exposed to either 1 or 10 ng/ml leptin for 24 h. Total RNA was isolated from these cells and then examined for SP-A, SP-B, SP-C, and GAPDH (housekeeping gene) mRNA expression.
# [2] = tested on: leptin receptor OB-Rb mRNA; assay: RT-PCR of leptin receptor expression in day 17 fetal lung explant cultures; assay type: cell-based, rat; conditions: d17 fetal lung explants, 3 days; 1 ng/ml leptin or 10 nM dexamethasone
# Experimental: FIG. 4 depicts RT-PCR analysis of leptin receptor expression in day 17 fetal lung explant cultures. Total RNA was reverse transcribed and amplified with either the short (OB-Ra) or the long (OB-Rb) form of the leptin receptor. Day 0 (Cd0) represents the time of initiation of culture. The fetal lung explants were exposed for 3 days to either control medium (Cd3), 1 ng/ml leptin (Ld3), or 10 nM dexamethasone (Dexd3). The size of the OB-Ra RT/PCR product is 479 bp and OB-Rb is 262 bp.
# To explore the effect of gestational age on surfactant production in response to leptin, we exposed younger lung explant cultures (d17) to 1 ng/ml leptin. Total RNA was extracted by homogenizing the explants in 4M guanidine thiocyanate, applying the lysate on a Qiagen RNeasy column (Qiagen, Chatsworth, Calif.), and recovering total RNA according to the manufacturer's instructions. RNA was quantified by measurement of absorbancy at 260 nm (A260). The quality of RNA was assessed by the A260/A280 ratio and by separation on agarose gels. Total RNA (1 μg) was brought up to 10 μl in DEPC-treated water. […]
# cornea from normal rats = conditions: but not fa/fa Zucker rats, Sierra-Honigmann et al.; cited from earlier work
# SP-A, SP-B, SP-C mRNA = assay: RT-PCR of surfactant protein mRNA in day 17 fetal lung explant cultures; assay type: cell-based, rat; conditions: 1 ng/ml leptin
# Experimental: Cultures were exposed to 1 ng/ml leptin (lanes 3, A-C) or control medium (lanes 2, A-C), and total RNA was isolated at the indicated day of culture. Total RNA was reverse transcribed and amplified with both β-actin and […] PCR primers. In each figure, lane 1 is the time of initiation of culture (day 0). Low levels of all surfactant RNAs were detected in the uncultured cells (lanes 1, A-C). The size of the β-actin RT/PCR product is 492 bp; the size of SP-A is 352 bp; SP-B is 201 bp, and SP-C is 284 bp.
# Qualitative RT/PCR detection of surfactant mRNA was performed using the Ambion QuantumRNA kit (Ambion, Austin, Tex.) and 1 μg of total RNA isolated from explants cultured for 3 days in culture. Lanes 1, 3,5: control day 3; lanes 2, 4, 6: 1 ng/ml leptin day 3.
# To explore the effect of gestational age on surfactant production in response to leptin, we exposed younger lung explant cultures (d17) to 1 ng/ml leptin. Total RNA was extracted by homogenizing the explants in 4M guanidine thiocyanate, applying the lysate on a Qiagen RNeasy column (Qiagen, Chatsworth, Calif.), and recovering total RNA according to the manufacturer's instructions. RNA was quantified by measurement of absorbancy at 260 nm (A260). The quality of RNA was assessed by the A260/A280 ratio and by separation on agarose gels. Total RNA (1 μg) was brought up to 10 μl in DEPC-treated water. The sample was heated to 75° C. for 3 min, placed on ice, and cDNA synthesis was performed by reverse transcription for 15 min at 42° C. in a 20 μl reaction containing 1×PCR buffer II (Perkin-Elmer), 5 mM MgCl2, 1.25 mM each dNTP, 1 U/μl RNasin (Promega), 12.5 μg/μl oligo (dT) 15, and 2.5 U/μl AMV reverse transcriptase (Promega Madison, Wis.). Subsequent amplification of the cDNA sequence was performed with 10 μl of the reverse transcription reaction in 1×Taq buffer, 5% DMSO, 25 pmol each primer (Table 1), and 1.25 U Taq polymerase in a 50 μl reaction volume.
# For assessment of the relative levels of SP-A, SP-B and SP-C transcripts, a multiplex RT/PCR reaction with β-actin was used. The temperature profile for the PCR reactions consisted of a 2 min melting step at 95° C., then 30 cycles of 30 s at 94° C., 30 s at 55° C., and 60 sec at 65° C., followed by a final extension step of 5 min at 72° C. RT-PCR products were separated by size on a 4% agarose gel and stained with ethidium bromide. Gel visualization and quantitative analysis of relative band intensities was performed using Eagle Eye II hardware and software (Stratagene, La Jolla, Calif.).
# However, leptin also increases the levels of P-actin in fetal lung explant cultures. […] Therefore, we chose to use 18S rRNA to determine the relative levels of surfactant mRNA because of the invariant expression of 18S rRNA across tissues and treatments. Since 18S rRNA is much more abundant than any mRNA species, modified 18S rRNA primers called competimers (Ambion) are used that cannot be extended by Taq polymerase. By adjusting the ratio of competimers to normal 18S rRNA primers, the RT/PCR signal for 18S rRNA can be decreased to the level of even rare messages, as described by the manufacturer. […] These experiments support the hypothesis that leptin has an effect on the maturation of type II alveolar cells.
# ob/ob mice = conditions: cited from earlier work
# [3] = tested on: SP-B (surfactant protein-B); assay: Western blot of SP-B in 21-day gestation fetal rat lung explants cultured with leptin; assay type: cell-based; conditions: d21 explants
# Experimental: FIG. 1 is a Western blot analysis of SP-B (surfactant protein-B) from 21-day gestation, fetal rat lung explants cultured in the presence or absence of leptin. Fetal lung explants were exposed to either (A) 1 ng/ml or (B) 10 ng/ml leptin from initiation of culture (day 0). Explants were harvested and protein extracts were prepared on days (d) 1, 2, and 3 of culture. Western blots were probed with an antibody specific to rat SP-B.
# We have used a fetal lung explant model to mimic the conditions of the premature lung. Lungs from d21 rat fetuses, term being 22 days, were dissected free of heart, trachea and bronchi and placed in ice-cold serum free Waymouth medium and cut into 1 mm^3 pieces on a McIlwain tissue chopper. The lung explants were placed in tissue culture dishes that were scratched (along each half) to facilitate attachment of explants. The excess medium was aspirated and fresh medium (2 ml for 60 mm plate) was gently placed on the explants. The 17-21 d explants were incubated in 95% O2-5% CO2, since incubation of these explants in 5% CO2 in air can cause compression of airways (Gross and Wilson, J. Appl. Physiol. 55: 1725-32, 1983). The petri dishes were placed on a tilting platform and allowed to rest for 90 min in a humidified atmosphere in a CO2 incubator. Thereafter, the plates were tilted at 34 cycles per minute so that during each cycle, one half of the petri dish was exposed to gas phase and the other half was covered with the medium. Leptin at either 1 or 10 ng/ml was added to the explant cultures on the day of establishment of the culture (day 0). The explants were cultured for varying periods of time for up to 3 days, and protein extracts were prepared to establish a time course for leptin effects on the fetal lung. Surfactant proteins were separated by electrophoresis on 15% polyacrylamide—SDS gels, and transferred to nitrocellulose membranes by electroblotting. The membranes were blocked with 2% gelatin (BioRad), treated overnight with anti-SP-B, and then with secondary antibody (goat anti-rabbit HRP-conjugated antibody). […]
# [4] = d17 explants, multiplex RT/PCR with β-actin (FIG. 2)
# [5] = d17 lung explants, 3 days in culture
Molecule,Weight fetal lung (g)/g fetus (pregnant rats),Average weight fetal lungs (pregnant rats),increase of average fetal lung weight in relation to body weight (pregnant rats),number of type II alveolar cells in fetal lung (type II alveolar cells),SP-A mRNA levels [1],SP-B mRNA levels [1],SP-C mRNA levels [1],OB-Rb mRNA levels [2],neovascularization in cornea (cornea from normal rats),"SP-A mRNA levels (SP-A, SP-B, SP-C mRNA; [4])","SP-C mRNA levels (SP-A, SP-B, SP-C mRNA; [4])","SP-A mRNA level relative to 18S rRNA, increase (SP-A, SP-B, SP-C mRNA; [5])","SP-B mRNA level relative to 18S rRNA, increase (SP-A, SP-B, SP-C mRNA; [5])","SP-C mRNA level relative to 18S rRNA, increase (SP-A, SP-B, SP-C mRNA; [5])","levels of β-actin (SP-A, SP-B, SP-C mRNA; fetal lung explant cultures (FIG. 2))",respiratory depression (ob/ob mice; O'Donnell et al. 1999),volume-dependent decrease in lung compliance (ob/ob mice; Tankersley et al. 1998),"SP-B production ([3]; 1 ng/ml leptin, 48 or 72 h exposure, vs control cultures)","SP-B levels ([3]; 10 ng/ml leptin, 48 and 72 h)","SP-B production ([3]; 10 ng/ml leptin, 24 h)"
"C[C@@H]1C[C@H]2[C@@H]3CCC4=CC(=O)C=C[C@]4(C)[C@@]3(F)[C@@H](O)C[C@]2(C)[C@@]1(O)C(=O)CO [Dexamethasone, dexamethasone, reference compound]",0.52 g/g fetus,0.79 (n = 9) g,41%,,,,,,,,,,,,,,,,,
leptin,0.56 g/g fetus,0.87 (n = 9) g,51%,increase in the number of type II alveolar cells,increased,increased,increased,decreases,induces neovascularization,significantly increases,significantly increases,1.6 fold,5 fold,2 fold,increases,prevent respiratory depression,ameliorated,increases SP-B production above that of the control cultures,decreases SP-B levels,increases SP-B production
